US20060229233A1, “Compositions and methods for treating neurological disorders” (ID Biomedical Corporation, priority 2004, published 2006)
Like-named read-outs stand apart in the source and are kept apart here. Marks after values point to notes of the source that are not given here.

Legend:
microglial phagocytosis = conditions: Cha, A. et al. (2001) GLIA 33(1):87-95; cited from earlier work
[1] = tested on: hippocampus of APP tg mice; assay: Immunohistochemistry of hippocampus in immunized animals; type: in vivo; conditions: for activated microglia (CD11b) in hippocampus: immunization in CFA, APP tg mice
Method: Immunohistology. The staining was performed utilizing the following markers: T-cells (CD3; BD Biosciences:553057), microglia/macrophages (CD11b; Serotec:MCA74G), (C-MFR; Cymbus Biotech:21080096), IFN-γ (Pharmingen: 559065), IL-10 (Pharmingen:559063) and TGF-β (RD:AB-20-PB). Anti-amyloid antibodies (R1282) were a gift of Dennis Seloke. Brain sections were further subject to Haematoxylin staining. Sections were evaluated in a blinded manner, and controls included use of isotype-matched mAbs as previously described. For each treatment the quantification was done from the hippocampal region of three different brain sections (the same region, Bregma −1.34, that were used for ThS staining). The results are expressed as the mean of the labeled cells for each marker.

J20 APP transgenic mice = type: in vivo; conditions: for occurrence of EAE: immunization in CFA + pertussis toxin
Method: Induction and clinical evaluation of EAE in APP+ mice. (B6D2)F1 or (B6XSJL)F1 APP+ (WT or B-cell deficient μMT) and non-tg littermates were immunized in the hind footpads with 100 μg MOG(35-55), PLP 139-151 or 100 μg β-amyloid peptide (1-40) in CFA. Immediately thereafter and again 48 hours later mice received an i.p. injection containing 150 ng of pertussis toxin in 0.2 ml PBS. Animals were monitored for symptoms of EAE beginning 7 days after immunization and scored as follows: 0, no disease; 1, tail paralysis; 2, hind limb weakness; 3, hind limb paralysis; 4, hind limb plus forelimb paralysis; and 5, moribund.
Nasal vaccination. Glatiramer acetate: 25 μg was given on days 1, 2, 4 and 5 the first week followed by a weekly boost for six weeks. IVX-908: 1 μg/mouse was given on days 1 and 5 the first week followed by a weekly boost for six weeks. BSA+IVX-908: 25 μg of BSA plus 1 ug IVX-908 were given on days 1 and 5 the first week, and 25 μg of BSA alone was given on days 2 and 4, followed by six weekly boosts of the combination of BSA+IVX-908. GA+IVX-908: 25 μg of GA plus 1 μg IVX-908 were given on days 1 and 5 the first week, and 25 μg of GA alone was given on days 2 and 4, followed by six weekly boosts of the combination of GA+IVX-908.

APP non-transgenic mice = assay: Microglial activation in APP non-transgenic mice; type: in vivo; conditions: parenteral with CFA/PT or nasal
Aβ = assay: Anti-Aβ antibody level (IgG, OD) in immunized J20 APP transgenic mice; type: in vivo
Method: Antibody levels were measured against Aβ in animals immunized with MOG or PLP to determine if there was cross reactivity with Aβ and Aβ antibody titers as compared to those from animals immunized with Aβ. […] To definitively establish that antibodies were not playing a role, 16-month-old J20 mice bred to μMT B-cell deficient mice were immunized with MOG 35-55 in CFA followed by administration of Pertussis toxin.

Aβ40 and Aβ42 [2] = assay: Total brain Aβ by sandwich ELISA, J20 APP transgenic mice; type: in vivo
Aβ40 and Aβ42 [3] = assay: as above; type: in vivo; conditions: for Total brain Aβ: subcutaneous immunization in CFA + pertussis toxin
Method: FIG. 1: Effect of subcutaneous immunization on total Aβ levels in the brain. To quantify amyloid burden, the right hemisphere was extracted in 5.0 M guanidinium-chloride (pH 8) for 3 hours at room temperature. Dilutions were used to measure levels of Aβ40 and Aβ42 by sandwich enzyme-linked immunosorbent assays (ELISA).
Amyloid quantification. To quantify amyloid burden, the right hemisphere was extracted in 5.0 M guanidinium-chloride (pH 8) for 3 hours at room temperature. Dilutions were used to measure levels of insoluble (amyloid-associated) […] and Aβ42 by sandwich enzyme-linked immunosorbent assays (ELISA). […] Brains were frozen in the presence of OCT paraformaldehyde, cut to 14-μm longitudinal sections used for immunohistological staining and amyloid fibril quantification. […] Images (magnification ×20) from these sections were collected from a 3CCD color video camera and analyzed with appropriate software (NIH; Imaging Research). The amount of amyloid fibril was expressed as a percentage per mm^2 hippocampal region as measured by the software.

Aβ fibrils = type: in vivo, mice; conditions: for % Area of thioflavin positive Aβ plaques (hippocampus): subcutaneous immunization in CFA + pertussis toxin
Method: Amyloid quantification. To quantify amyloid burden, the right hemisphere was extracted in 5.0 M guanidinium-chloride (pH 8) for 3 hours at room temperature. Dilutions were used to measure levels of insoluble (amyloid-associated) […] and Aβ42 by sandwich enzyme-linked immunosorbent assays (ELISA). To measure Aβ fibrils, the left hemisphere was fixed in 4% […] O/N followed by 4.5% sucrose for 4 hours then 20% Sucrose for O/N at 4° C. Brains were frozen in the presence of OCT paraformaldehyde, cut to 14-μm longitudinal sections used for immunohistological staining and amyloid fibril quantification. Well-defined hippocampal regions (Bregma −1.34), were selected for quantification of the amount of amyloid fibril in plaques using thioflavin-S staining. Images (magnification ×20) from these sections were collected from a 3CCD color video camera and analyzed with appropriate software (NIH; Imaging Research). The amount of amyloid fibril was expressed as a percentage per mm^2 hippocampal region as measured by the software.

[4] = nasal immunization, J20 APP transgenic mice
[5] = subcutaneous (footpad) immunization in CFA + pertussis toxin, J20 APP transgenic mice, scale 0-5
[6] = level of OD at titer of 1:500 IgG, subcutaneous immunization in CFA + pertussis toxin, J20 APP transgenic mice
[7] = immunization in CFA + pertussis toxin, APP transgenic mice
[8] = Subcutaneous (CFA/P.T.), B-deficient mice
[9] = μMT B-cell deficient J20 APP+ mice
[10] = μMT B-cell deficient APP+ mice, CFA + Pertussis toxin

Row | Substance | activated microglia (CD11b) in hippocampus [1] | occurrence of EAE (J20 APP transgenic mice) | CD3, number of cells per hippocampal region ([1]; Subcutaneous (CFA/P.T.)) | CD11b, number of cells per hippocampal region ([1]; Subcutaneous (CFA/P.T.)) | IFN-γ, number of cells per hippocampal region ([1]; Subcutaneous (CFA/P.T.)) | IL-10, number of cells per hippocampal region ([1]; Subcutaneous (CFA/P.T.)) | M-CSFR, number of cells per hippocampal region ([1]; Subcutaneous (CFA/P.T.)) | TGF-β, number of cells per hippocampal region ([1]; Subcutaneous (CFA/P.T.)) | EAE score (J20 APP transgenic mice; [5]) | Anti-Aβ Antibody (Aβ; [6]) | reduction of total brain Aβ (ELISA) / total amyloid load vs. control (Aβ40 and Aβ42 [3]; [7]) | Total brain Aβ (Aβ40 and Aβ42 [3]; J20 APP transgenic mice) | reduction of staining for Aβ fibril in the hippocampus (thioflavin S) vs. controls (Aβ fibrils; [7]) | % Area of thioflavin positive Aβ plaques (hippocampus) (Aβ fibrils; J20 APP transgenic mice) | also measured
1 | INF-gamma: Th1-type cytokine INF-gamma | – | – | – | – | – | – | – | – | – | – | – | – | – | – | augmentation of microglial phagocytosis (microglial phagocytosis): 75 % above untreated
2 | bovine serum albumin [BSA/CFA] | 76±17 cells/hippocampus region | no EAE was observed | – | – | – | – | – | – | – | – | – | – | – | – | –
3 | glatiramer acetate [GA] | – | no clinical EAE | 61 ± 12 ^i cells per hippocampal region | 227 ± 61 ^i cells per hippocampal region | 85 ± 11 ^iv cells per hippocampal region | 59 ± 7 cells per hippocampal region | 57 ± 8 cells per hippocampal region | 31 ± 7 cells per hippocampal region | 0 | 0 OD | 70% | 39.1 ± 12.8 ^c ng/ml | 92% | 0.26 ± 0.1 ^d % | CD3, number of cells per hippocampal region ([1]; NASAL): 35 ± 19 cells per hippocampal region; CD11b, number of cells per hippocampal region ([1]; NASAL): 136 ± 12 cells per hippocampal region; IFN-γ, number of cells per hippocampal region ([1]; NASAL): 53 ± 3 ^i cells per hippocampal region; IL-10, number of cells per hippocampal region ([1]; NASAL): 75 ± 7 cells per hippocampal region; M-CSFR, number of cells per hippocampal region ([1]; NASAL): 30 ± 9 cells per hippocampal region; TGF-β, number of cells per hippocampal region ([1]; NASAL): 77 ± 10 cells per hippocampal region; EAE score (J20 APP transgenic mice; [4]): 0; microglial activation in APP non-transgenic mice (APP non-transgenic mice): No microglial activation; Anti-Aβ Antibody (Aβ; level of OD 450 at titer of 1:50 IgG, nasal immunization, J20 APP transgenic mice): 0 OD 450; effect on total Aβ levels in the brain (Aβ40 and Aβ42 [2]; nasal administration): slight reduction; Total brain Aβ (Aβ40 and Aβ42 [2]; [4]): 97.6 ± 15.5 ng/mL; effect on Aβ fibrils / fibrillar Aβ staining (Aβ fibrils; mouse, in vivo): did not affect Aβ fibrils; % Area of thioflavin S positive Aβ plaques (hippocampus) (Aβ fibrils; [4]): 2.06 ± 0.8%
4 | human β-amyloid peptide (Aβ amino acids 1-40) | 106±27 cells/hippocampus region | no EAE was observed | 10 ± 2 cells per hippocampal region | 106 ± 27 cells per hippocampal region | 9 ± 2 cells per hippocampal region | 44 ± 5 cells per hippocampal region | 34 ± 11 cells per hippocampal region | 41 ± 5 cells per hippocampal region | 0 | 0.75 OD | – | 60.8 ± 16 ^a ng/ml | – | 0.83 ± 0.3 ^a % | –
5 | myelin oligodendrocyte glycoprotein (MOG) peptide (amino acids 35-55) (MEVGWYRSPFSRVVHLYRNGK; UniProt Q61885 63-83, looked up, fragment) | 349±34.3 cells/hippocampus region | – | 142 ± 19 ^iv cells per hippocampal region | 349 ± 34.3 ^iv cells per hippocampal region | 109 ± 7 ^iv cells per hippocampal region | 21 ± 9 ^ii cells per hippocampal region | 79 ± 5 ^i cells per hippocampal region | 20 ± 5 ^iii cells per hippocampal region | 2.5 ± 0.8 | 0 OD | 94% | 8.4 ± 2.1 ^b ng/ml | 92% | 0.22 ± 0.1 ^b % | CD3, number of cells per hippocampal region [1, 8]: 195 ± 12 ^iv cells per hippocampal region; CD11b, number of cells per hippocampal region [1, 8]: 462 ± 23 ^iv cells per hippocampal region; IFN-γ, number of cells per hippocampal region [1, 8]: 119 ± 18 ^iv cells per hippocampal region; IL-10, number of cells per hippocampal region [1, 8]: 25 ± 5 ^i cells per hippocampal region; M-CSFR, number of cells per hippocampal region [1, 8]: 77 ± 6 ^i cells per hippocampal region; TGF-β, number of cells per hippocampal region [1, 8]: 22 ± 8 ^ii cells per hippocampal region; EAE score (J20 APP transgenic mice; subcutaneous immunization in CFA + pertussis toxin, μMT B-cell deficient J20 APP+ mice): 2.7 ± 0.4; anti-Aβ antibodies (Aβ; MOG immunization): not detected; Anti-Aβ Antibody (Aβ; level of OD at titer of 1:500 IgG, subcutaneous, μMT B-cell deficient J20 APP+ mice): 0 OD; reduction of total brain Aβ (ELISA) compared to Aβ 1-40 immunized mice (Aβ40 and Aβ42 [3]; [7]): 86%; Total brain Aβ (Aβ40 and Aβ42 [3]; [9]): 11.4 ± 2.7 ^b ng/ml; reduction in amyloid compared to control by ELISA for total brain amyloid (Aβ40 and Aβ42 [3]; [10]): 90%; reduction of staining for Aβ fibril in the hippocampus (thioflavin S) compared to mice immunized with Aβ 1-40 (Aβ fibrils; [7]): 73%; % Area of thioflavin positive Aβ plaques (hippocampus) (Aβ fibrils; [9]): 0.27 ± 0.04 ^b %; reduction in amyloid compared to control by ThS staining (Aβ fibrils; [10]): 90%
